From US20230312524A1, “ALPHA1A-ADRENERGIC RECEPTOR AGONISTS AND METHODS OF USE” (CuraSen Therapeutics, Inc., priority 2020, published 2023)
Like-named read-outs stand apart in the source and are kept apart here.

Target: T1, α1A-ARS (Homo sapiens, UniProt P35348)
T1 sequence (P35348 1-466): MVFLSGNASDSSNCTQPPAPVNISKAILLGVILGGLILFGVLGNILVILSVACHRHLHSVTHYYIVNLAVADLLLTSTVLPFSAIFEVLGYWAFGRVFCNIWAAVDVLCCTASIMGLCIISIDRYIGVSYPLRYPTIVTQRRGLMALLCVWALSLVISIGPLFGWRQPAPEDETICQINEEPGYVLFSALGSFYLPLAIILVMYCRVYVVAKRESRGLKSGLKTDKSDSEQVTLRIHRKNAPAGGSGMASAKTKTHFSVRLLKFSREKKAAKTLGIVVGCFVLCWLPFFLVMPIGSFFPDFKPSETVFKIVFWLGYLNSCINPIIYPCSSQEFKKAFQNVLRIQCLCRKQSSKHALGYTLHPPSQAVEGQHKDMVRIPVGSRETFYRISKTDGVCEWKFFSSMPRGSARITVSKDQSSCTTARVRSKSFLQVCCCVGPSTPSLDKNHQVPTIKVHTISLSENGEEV
Test: Calcium flux assay (Calcium 6 dye) in cells expressing an α1-AR
Format: cell-based
Settings: for Emax: read-out: Average Emax
Source text: Calcium flux experimental design: alpha-1 adrenergic receptors (α1-ARs) couple to Gq proteins, which results in downstream activation of phospholipase C and release of calcium from intracellular stores. Intracellular calcium increase upon α1-AR activation can be detected by Calcium 6 dye.
Cell preparation: cells expressing an α1-AR were washed in warmed phosphate-buffered saline to remove medium and harvested using versene (Caisson Labs, catalog #EDL01).
Media was removed from cells by tapping plates upside-down on absorbent wipes, followed by 15 second upside-down 50×g centrifugation, again on absorbent wipes. 12 μL cell dye solution was added to cells using a reagent dispenser (Integra viaFILL) and cells were incubated for 90 minutes at 37° C., 5% CO2.
Compound preparation: candidate alpha-adrenergic compounds, dissolved to 10 mM in DMSO, were diluted in_assay buffer (HBSS/H-EPES containing 2 mM CaCl2 and 2 mM probenecid sodium salt). […] On all assay plates, vehicle (DMSO) and positive control (10 μM epinephrine) conditions were included on the plate, as well as a dose-response curve of epinephrine. […] 384 well compound plates were centrifuged briefly at 250×g, sealed (Axygen PCR-SP) and incubated at 37° C. until the 90 minute cell dye incubation was complete.
Calcium 6 stained cells and 384 well compound plates were loaded onto the Flexstation and incubated on the machine for 5 minutes before initiating the assay.
For each assay well, baseline Calcium 6 fluorescence was detected for 18 seconds prior to 12 μL compound addition at 12 μL per second. Changes in Calcium 6 fluorescence were detected for a further 22 seconds, for a total read time of 40 seconds. All detection was performed with medium gain sensitivity, bottom read, with 6 flashes per read.
Data analysis: for calcium flux, analysis of maximum change from baseline over the 40-second read time was determined using Softmax Pro and data was exported as raw text files. Potency estimates (EC50) were derived from dose response curves (maximum change from baseline versus the log concentration of test compound) fit by four-parameter nonlinear regression using Graphpad Prism. Efficacy was determined by comparing the magnitude of the test compound signal window (fitted curve max−min) with the signal window of the full agonist control, epinephrine. […] All experiments were repeated a minimum of three times, with the average (mean) potency and maximum effect relative to the within-plate full agonist dose-response comparator reported.

[1] = calcium flux, α1A-AR, maximum effect relative to full agonist epinephrine
[2] = calcium flux, α1A-AR, mean of at least three experiments, read-out: Average PEC50

Compound: Clc1cn(-c2cn[nH]c2)c2cc(CC3=NCCN3)ccc12 [Compound 62]
- Emax [1]: < 20%
- EC50 [2]: > 1000 nM

Compound: Clc1cn(C2CC2)c2cc(CC3=NCCN3)ccc12 [Compound 63]
- EC50 [2]: 10 to 977 nM
- Emax: 21 to 60%

Compound: CC(C)(C)c1ccccc1CC1=NCCN1 [Compound 64]
- EC50 [2]: > 1000 nM
- Emax: < 20%

Compound: Clc1ccc(CC2=NCCN2)c(C2CC2)c1 [Compound 65]
- EC50 [2]: 10 to 977 nM
- Emax: > 61%

Compound: Cc1cc(C(F)(F)F)ccc1CC1=NCCN1 [Compound 66]
- EC50 [2]: 10 to 977 nM
- Emax: 21 to 60%

Compound: CCc1cc(Cl)ccc1CC1=NCCN1 [Compound 67]
- EC50 [2]: 10 to 977 nM
- Emax: > 61%

Compound: FC(F)(F)c1ccc(CC2=NCCN2)c(N2CCOCC2)c1 [Compound 68]
- Emax [1]: < 20%
- EC50 [2]: > 1000 nM

Compound: FC(F)(F)c1ccc(CC2=NCCN2)c(N2CCCCC2)c1 [Compound 69]
- Emax [1]: 21 to 60%
- EC50 [2]: 10 to 977 nM

Compound: Fc1ccc(CC2=NCCN2)c(C2CC2)c1 [Compound 70]
- EC50 [2]: 10 to 977 nM
- Emax: 21 to 60%

Compound: CCc1cc(F)ccc1CC1=NCCN1 [Compound 71]
- EC50 [2]: 10 to 977 nM
- Emax: 21 to 60%

Compound: Fc1ccc(CC2=NCCN2)c(N2CCOCC2)c1 [Compound 72]
- Emax [1]: < 20%
- EC50 [2]: > 1000 nM

Compound: Cc1cc(F)ccc1CC1=NCCN1 [Compound 73]
- EC50 [2]: 10 to 977 nM
- Emax: 21 to 60%

Compound: Clc1ccc(CC2=NCCN2)c(-c2ccccc2)c1 [Compound 74]
- Emax [1]: > 61%
- EC50 [2]: 10 to 977 nM

Compound: FC(F)(F)c1ccc(CC2=NCCN2)c(-c2ccccc2)c1 [Compound 75]
- Emax [1]: > 61%
- EC50 [2]: 10 to 977 nM

Compound: FCc1cc(Cl)ccc1CC1=NCCN1 [Compound 76]
- EC50 [2]: 10 to 977 nM
- Emax: 21 to 60%

Compound: FC(F)(F)c1ccc(CC2=NCCN2)c(C2CC2)c1 [Compound 77]
- EC50 [2]: 10 to 977 nM
- Emax: > 61%

Compound: CCc1cc(C(F)(F)F)ccc1CC1=NCCN1 [Compound 78]
- EC50 [2]: < 9.77 nM
- Emax: > 61%

Compound: Fc1ccc(CC2=NCCN2)c(-c2ccccc2)c1 [Compound 79]
- Emax [1]: > 61%
- EC50 [2]: < 9.77 nM

Compound: Fc1ccc(CC2=NCCN2)c(C(F)(F)F)c1 [Compound 80]
- EC50 [2]: > 1000 nM
- Emax: 21 to 60%

Compound: COc1ccc(CC2=NCCN2)c(C(F)(F)F)c1 [Compound 81]
- EC50 [2]: 10 to 977 nM
- Emax: > 61%

Compound: FC(F)c1cc(Cl)ccc1CC1=NCCN1 [Compound 82]
- EC50 [2]: 10 to 977 nM
- Emax: 21 to 60%

Compound: N#Cc1ccc(CC2=NCCN2)c(C(F)(F)F)c1 [Compound 83]
- EC50 [2]: > 1000 nM
- Emax: 21 to 60%

Compound: CC(C)c1cc(Cl)ccc1CC1=NCCN1 [Compound 84]
- EC50 [2]: 10 to 977 nM
- Emax: 21 to 60%

Compound: FC(F)(F)Oc1cc(Cl)ccc1CC1=NCCN1 [Compound 85]
- EC50 [2]: 10 to 977 nM
- Emax: 21 to 60%

Compound: Cc1ccc(Cl)cc1CC1=NCCN1 [Compound 86]
- EC50 [2]: 10 to 977 nM
- Emax: 21 to 60%

Compound: Cc1cccc(Cl)c1CC1=NCCN1 [Compound 87]
- EC50: 10 to 977 nM
- Emax: 21 to 60%

Compound: CC(C)Cc1cc(Cl)ccc1CC1=NCCN1 [Compound 88]
- EC50 [2]: 10 to 977 nM
- Emax: > 61%

Compound: Cc1c(Cl)cccc1CC1=NCCN1 [Compound 89]
- EC50 [2]: > 1000 nM
- Emax: 21 to 60%

Compound: FC(F)(F)Cc1cc(Cl)ccc1CC1=NCCN1 [Compound 90]
- EC50 [2]: > 1000 nM
- Emax: 21 to 60%

Compound: Clc1ccc(CC2=NCCN2)c(-n2cccc2)c1 [Compound 91]
- Emax [1]: > 61%
- EC50 [2]: 10 to 977 nM

Compound: FC(F)(F)c1coc2c(CC3=NCCN3)cccc12 [Compound 92]
- EC50 [2]: > 1000 nM
- Emax: 21 to 60%

Compound: FC(F)(F)c1ccc(CC2=NCCN2)c(-n2cccn2)c1 [Compound 93]
- Emax [1]: > 61%
- EC50 [2]: 10 to 977 nM

Compound: Cc1coc(-c2cc(Cl)ccc2CC2=NCCN2)n1 [Compound 94]
- Emax [1]: 21 to 60%
- EC50 [2]: 10 to 977 nM

Compound: FC(F)(F)c1ccc(CC2=NCCN2)c(C2CCCCC2)c1 [Compound 96]
- Emax [1]: 21 to 60%
- EC50 [2]: > 1000 nM

Compound: CN(CC(F)(F)F)c1cc(C(F)(F)F)ccc1CC1=NCCN1 [Compound 97]
- Emax [1]: < 20%
- EC50 [2]: > 1000 nM

Compound: Cc1cc2c(C)c(CC3=NCCN3)cc(Cl)c2o1 [Compound 98]
- EC50 [2]: 10 to 977 nM
- Emax: 21 to 60%

Compound: CCc1c(Cl)cccc1CC1=NCCN1 [Compound 99]
- EC50 [2]: > 1000 nM
- Emax: 21 to 60%

Compound: Cc1c(CC2=NCCN2)cc(Cl)c2[nH]ccc12 [Compound 100]
- EC50 [2]: < 9.77 nM
- Emax: > 61%

Compound: Cc1c(CC2=NCCN2)cc(Cl)c2c1ccn2C [Compound 101]
- EC50 [2]: < 9.77 nM
- Emax: > 61%

Compound: CC(C)Oc1cc(Cl)ccc1CC1=NCCN1 [Compound 102]
- EC50 [2]: 10 to 977 nM
- Emax: 21 to 60%

Compound: Clc1ccc(CC2=NCCN2)c(-c2ccon2)c1 [Compound 104]
- Emax [1]: > 61%
- EC50 [2]: 10 to 977 nM

Compound: Cc1c(CC2=NCCN2)cc(Cl)c2c1cnn2C [Compound 105]
- EC50 [2]: 10 to 977 nM
- Emax: 21 to 60%

Compound: Cc1c(CC2=NCCN2)cc(Cl)c2nn(C)cc12 [Compound 106]
- EC50 [2]: 10 to 977 nM
- Emax: 21 to 60%

Compound: Cc1coc2c(Cl)cc(CC3=NCCN3)c(C)c12 [Compound 107]
- EC50 [2]: < 9.77 nM
- Emax: 21 to 60%

Compound: Cc1c(CC2=NCCN2)cc(Cl)c2[nH]ncc12 [Compound 108]
- EC50 [2]: 10 to 977 nM
- Emax: > 61%

Compound: Clc1cccc(CC2=NCCN2)c1-n1cccc1 [Compound 109]
- Emax [1]: > 61%
- EC50 [2]: 10 to 977 nM

Compound: CCc1cc(S(=O)(=O)CF)ccc1CC1=NCCN1 [Compound 110]
- Emax [1]: > 61%
- EC50 [2]: 10 to 977 nM

Compound: CCc1cc(S(=O)(=O)C(F)(F)F)ccc1CC1=NCCN1 [Compound 111]
- Emax [1]: > 61%
- EC50 [2]: 10 to 977 nM

Compound: CCc1cc(S(=O)(=O)C(F)F)ccc1CC1=NCCN1 [Compound 112]
- Emax [1]: > 61%
- EC50 [2]: 10 to 977 nM

Compound: CCc1cc(S(C)(=O)=O)ccc1CC1=NCCN1 [Compound 113]
- Emax [1]: > 61%
- EC50 [2]: 10 to 977 nM

Compound: FC(F)Oc1cc(Cl)ccc1CC1=NCCN1 [Compound 114]
- EC50 [2]: 10 to 977 nM
- Emax: 21 to 60%

Compound: Cc1cccn1-c1c(Cl)cccc1CC1=NCCN1 [Compound 115]
- Emax [1]: 21 to 60%
- EC50 [2]: > 1000 nM

Compound: Cc1cccn1-c1cc(Cl)ccc1CC1=NCCN1 [Compound 116]
- Emax [1]: > 61%
- EC50 [2]: 10 to 977 nM

Compound: CC(C)C(F)(F)c1cc(Cl)ccc1CC1=NCCN1 [Compound 117]
- EC50 [2]: 10 to 977 nM
- Emax: 21 to 60%

Compound: Clc1ccc(CC2=NCCN2)c(C2CCOCC2)c1 [Compound 118]
- Emax [1]: < 20%
- EC50 [2]: > 1000 nM

Compound: Clc1ccc(CC2=NCCN2)c(CC2CCOCC2)c1 [Compound 119]
- Emax [1]: < 20%
- EC50 [2]: > 1000 nM
